How the values were obtained:
[1] = biological target: T1, MMP-1 (Homo sapiens, UniProt P03956); assay: MMP-1 inhibitory colorimetric assay (MMP1 Inhibitor Screening Assay Kit ab139443); assay type: biochemical; conditions: for IC50: colorimetric assay, A412nm, mean ± standard deviation of triplicated samples; for inhibitory activity against MMP-1 in words: at a 100 µM concentration
T1 construct: purchased abcam ab139443
T1 sequence (P03956 100-269 limits assumed): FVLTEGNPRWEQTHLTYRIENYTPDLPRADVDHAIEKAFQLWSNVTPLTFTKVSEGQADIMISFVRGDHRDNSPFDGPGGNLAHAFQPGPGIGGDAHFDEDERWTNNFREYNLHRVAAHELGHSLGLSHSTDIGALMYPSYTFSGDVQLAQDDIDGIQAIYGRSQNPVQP
Method: We next examined the inhibitory activity of the synthesized compounds 3–6 against MMP-1 using a colorimetric assay. This assay was performed using the MMP-1 Inhibitor Screening Assay Kit (ab139443) according to the manufacturer’s protocols. The reaction was started by the addition of the diluted MMP-1 substrate. The continuous absorbance of the wells was measured at A412nm using a microplate reader.
MMP-1 inhibitory assay was performed using the assay kit according to the manufacturer’s protocol. A 96-well clear microplate (1/2 volume), 30.6 U/µL of MMP-1 enzyme, MMP-1 substrate (25 mM in DMSO), and colorimetric assay buffer were contained in MMP1 Inhibitor Screening Assay Kit (ab139443, abcam). 2-[(2-Methylpropyl)[(4-methoxyphenyl)sulfonyl]amino]acetohydroximic acid (NNGH) was used as a positive control of an MMP-1 inhibitor. The MMP-1 substrate and DMSO solution of compound were thawed at room temperature. A compound (10 mM in DMSO) was diluted at 1/200 in assay buffer and brought to 37 °C. Also, the MMP-1 substrate was diluted at 1/200 in assay buffer and brought to 37 °C. The MMP-1 enzyme was diluted at 1/25 in assay buffer and warmed up to 37 °C as soon as the assay was started. After the assay buffer was pipetted appropriately into each well, 20 µL of the prepared MMP-1 enzyme solution and the desired concentration of test inhibitor solutions (20 µL; final concentrations: 0.1–100 µM) were added to the wells. The microplate was incubated for 30 min at 37 °C. The 10 µL of the prepared MMP-1 substrate solution was added into each well to allow the reaction start. The absorbance of the wells was measured at A412nm using a microplate reader every 1 min, and data analysis was performed.

Compound	melting point	IC50 [1]	inhibitory activity against MMP-1 in words [1]	fold higher MMP-1 inhibitory activity (fold lower IC50) of compound 4 relative to compound 3 ([1]; ratio of IC50 values, compound 3 vs compound 4)
C[C@H](C(=O)NO)N1CC[C@@](C)(c2ccc(-c3ccccc3)cc2)C1=O [Compound 3, (R)-2-((S)-3-([1,1′-biphenyl]-4-yl)-3-methyl-2-oxopyrrolidin-1-yl)-N-hydroxypropanamide]	160 to 162 °C	11.5 ± 1.3 µM	–	–
C[C@H](C(=O)NO)N1CC[C@@](C)(c2ccccc2)C1=O [Compound 5, (R)-N-hydroxy-2-((S)-3-methyl-2-oxo-3-phenylpyrrolidin-1-yl)propanamide]	–	1.54 ± 0.08 µM	–	–
C[C@H](C(=O)NO)N1CC[C@@](C)(c2cccc(C(F)(F)F)c2)C1=O [Compound 6, (R)-N-hydroxy-2-((S)-3-methyl-2-oxo-3-(3-(trifluoromethyl)phenyl)pyrrolidin-1-yl)propanamide]	–	11.1 ± 0.5 µM	–	–
C[C@H](C(=O)NO)N1CC[C@](C)(c2ccc(-c3ccccc3)cc2)C1=O [3′, (R)-2-((R)-3-([1,1′-biphenyl]-4-yl)-3-methyl-2-oxopyrrolidin-1-yl)-N-hydroxypropanamide]	137 to 138 °C	> 100 µM	did not display significant inhibitory activity	–
C[C@H](C(=O)NO)N1CC[C@](C)(c2ccc(C(F)(F)F)cc2)C1=O [4′, (R)-N-hydroxy-2-((R)-3-methyl-2-oxo-3-(4-(trifluoromethyl)phenyl)pyrrolidin-1-yl)propanamide]	105 to 107 °C	> 100 µM	did not display significant inhibitory activity	–
C[C@H](C(=O)NO)N1CC[C@@](C)(c2ccc(C(F)(F)F)cc2)C1=O [Compound 4, (R)-N-hydroxy-2-((S)-3-methyl-2-oxo-3-(4-(trifluoromethyl)phenyl)pyrrolidin-1-yl)propanamide]	–	0.18 ± 0.03 µM	–	60 fold

Source: publication PMC7477548, “Prediction of an MMP-1 inhibitor activity cliff using the SAR matrix approach and its experimental validation” (Scientific Reports, 2020)
